In article PMC7508162 (Frontiers in Pharmacology, 2020):
Entries after “also recorded” stand apart in the source; their conditions may differ. Like-named read-outs stand apart in the source and are kept apart here.

Target: T1, human CD39 (Homo sapiens, UniProt P49961)
T1 sequence (P49961 1-510): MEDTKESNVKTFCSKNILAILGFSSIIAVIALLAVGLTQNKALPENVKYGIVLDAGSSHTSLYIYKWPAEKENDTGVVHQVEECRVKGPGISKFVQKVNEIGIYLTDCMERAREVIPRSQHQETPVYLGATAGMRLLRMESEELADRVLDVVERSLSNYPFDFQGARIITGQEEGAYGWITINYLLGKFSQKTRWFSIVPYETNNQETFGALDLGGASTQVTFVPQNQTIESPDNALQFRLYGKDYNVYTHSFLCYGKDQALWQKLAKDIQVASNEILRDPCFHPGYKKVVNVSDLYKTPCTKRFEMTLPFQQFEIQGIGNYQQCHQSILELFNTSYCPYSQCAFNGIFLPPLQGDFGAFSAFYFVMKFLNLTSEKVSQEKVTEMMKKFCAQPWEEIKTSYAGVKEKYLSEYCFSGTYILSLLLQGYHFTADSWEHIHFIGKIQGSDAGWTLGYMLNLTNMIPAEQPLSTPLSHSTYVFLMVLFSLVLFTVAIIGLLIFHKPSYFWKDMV
Assay: Fluorescence capillary electrophoresis assay for CD39
Format: biochemical
Design: Human umbilical cord membrane preparations (250 ng) natively expressing high amounts of CD39; from tissue; host or cells: human umbilical cord membranes
Settings: for Ki: human umbilical cord membrane preparation, n = 3, Cheng-Prusoff; for CD39 inhibition (in words) / IC50 (in words): human CD39; for inhibition at 10 µM: read-out: % inhibition at 10 µM
Method: They were minced and homogenized with a polytron in 95 mM NaCl, 0.1 mM phenylmethylsulfonyl fluoride (PMSF), and 45 mM Tris solution, pH 7.6. […] The pellets were resuspended in 5 mM Tris buffer solution, pH 8.0 and 10% glycerol. All purification steps were performed at 4°C. The preparations were kept at −80°C.
For inhibition screening, three independent experiments were performed. […] The reaction buffer contained 10 mM HEPES, 2 mM CaCl2, 1 mM MgCl2, pH 7.4. The samples were incubated at 37°C for 4 min, and the enzymatic reaction was terminated by heating at 90°C for 5 min. The solution was then diluted 1:20 with reaction buffer to perform separation of nucleotides by capillary electrophoresis (CE) followed by laser-induced fluorescence (LIF) detection. […] Three independent experiments were performed, and curves were calculated by GraphPad Prism 8 software (GraphPad software, San Diego, CA, USA).
Analysis was carried out using a P/ACE MDQ capillary electrophoresis system (Beckman Instruments, Fullerton, CA, USA). The separation was performed in a polyacrylamide-coated capillary [30 cm (10 cm effective length) × 50 µm (id), × 360 µm (od)]. Before each run, the capillary was rinsed with the background electrolyte [50 mM phosphate buffer (pH 6.5)] for 1 min at 30 psi. Samples were electrokinetically injected by applying a voltage of -6 kV for 30 s at the capillary outlet, and the fluorescent nucleotide derivatives were separated by voltage application of -15 kV. […] Data collection and peak area analysis were performed by the P/ACE MDQ software 32 KARAT obtained from Beckman Coulter (Fullerton, CA, USA).

[1] = fluorescent substrate PSB-017621A 0.5 µM, read-out: Ki ± SEM
[2] = screening at 10 µM, fluorescent substrate PSB-017621A 0.5 µM
[3] = ratio of Ki values, fluorescence CE assay

| SMILES | Ki [1] [µM] | inhibition at 10 µM [2] [%] | also measured |
| --- | --- | --- | --- |
| CCCN(C)c1ncnc2c1ncn2[C@@H]1O[C@H](COP(=O)(O)OP(=O)(O)C(Br)(Br)P(=O)(O)O)[C@@H](O)[C@H]1O [Compound 26, (Dibromo((((((2R,3S,4R,5R)-3,4-dihydroxy-5-(6-(methyl-(propyl)amino)-9H-purin-9-yl)tetra-hydrofuran-2-yl)-methoxy)(hydroxy)phosphoryl)oxy)(hydroxy)phosphoryl)-methyl)phosphonic Acid] | 4.04 ± 2.12 | – | – |
| CCCN(CC)c1ncnc2c1ncn2[C@@H]1O[C@H](COP(=O)(O)OP(=O)(O)C(Br)(Br)P(=O)(O)O)[C@@H](O)[C@H]1O [Compound 28, (Dibromo((((((2R,3S,4R,5R)-5-(6-(ethyl(propyl)amino)-9H-purin-9-yl)-3,4-dihydroxytetra-hydrofuran-2-yl)methoxy)-(hydroxy)phosphoryl)oxy)(hydroxy)phosphoryl)methyl)-phosphonic Acid] | 2.22 ± 0.02 | – | – |
| Nc1ncnc2c1ncn2[C@@H]1O[C@H](COP(=O)(O)OP(=O)(O)CP(=O)(O)O)[C@@H](O)[C@H]1O [Compound 43, β,γ-Methylene-ATP, reference compound] | > 10 | 23 | CD39 inhibition (in words): virtually inactive; also recorded: no significant inhibition |
| O=P(O)(OC[C@H]1O[C@@H](n2cnc3c(NCc4ccccc4)ncnc32)[C@H](O)[C@@H]1O)OP(=O)(O)C(Br)(Br)P(=O)(O)O [Compound 29, (((((((2R,3S,4R,5R)-5-(6-(Benzylamino)-9H-purin-9-yl)-3,4-dihydroxytetrahydrofuran-2-yl)methoxy)(hydroxy)-phosphoryl)oxy)(hydroxy)phosphoryl)dibromomethyl)-phosphonic Acid] | > 10 | 4 | CD39 inhibition (in words): abolishment of the CD39-inhibiting activity |
| CN(C)c1ncnc2c1ncn2[C@@H]1O[C@H](COP(=O)(O)OP(=O)(O)C(Br)(Br)P(=O)(O)O)[C@@H](O)[C@H]1O [Compound 24, (Dibromo((((((2R,3S,4R,5R)-5-(6-(dimethylamino)-9H-purin-9-yl)-3,4-dihydroxytetrahydro-furan-2-yl)methoxy)-(hydroxy)phosphoryl)oxy)(hydroxy)phosphoryl)methyl)-phosphonic Acid] | 40.1 ± 7 | – | fold decrease in CD39 potency compared to I [3]: 41 fold |
| CCN(C)c1ncnc2c1ncn2[C@@H]1O[C@H](COP(=O)(O)OP(=O)(O)C(Br)(Br)P(=O)(O)O)[C@@H](O)[C@H]1O [Compound 25, (Dibromo((((((2R,3S,4R,5R)-5-(6-(ethyl(methyl)amino)-9H-purin-9-yl)-3,4-dihydroxytetra-hydrofuran-2-yl)methoxy)-(hydroxy)phosphoryl)oxy)(hydroxy)phosphoryl)methyl)-phosphonic Acid] | 6.48 ± 2.6 | – | fold decrease in CD39 potency compared to I [3]: about 7 fold |
| Nc1ncnc2c1ncn2[C@@H]1O[C@H](COP(=O)(O)OP(=O)(O)C(Br)(Br)P(=O)(O)O)[C@@H](O)[C@H]1O [Compound 38, (((((((2R,3S,4R,5R)-5-(6-amino-9H-purin-9-yl)-3,4-dihydroxytetrahydrofuran-2-yl)methoxy)-(hydroxy)-phosphoryl)oxy)(hydroxy)phosphoryl)dibromomethyl)-phosphonic Acid] | 5.26 ± 0.22 | – | IC50 (in words): low micromolar range; fold decrease in CD39 potency compared to I [3]: about 5 fold |
| O=P(O)(OC[C@H]1O[C@@H](n2cnc3c(NCCc4ccccc4)ncnc32)[C@H](O)[C@@H]1O)OP(=O)(O)C(Br)(Br)P(=O)(O)O [Compound 30, (Dibromo((((((2R,3S,4R,5R)-3,4-dihydroxy-5-(6-(phenethylamino)-9H-purin-9-yl)tetrahydrofuran-2-yl)-methoxy)(hydroxy)phosphoryl)oxy)(hydroxy)phosphoryl)-methyl)phosphonic Acid] | 4.82 ± 0.21 | – | – |
| CCCN(CCC)c1ncnc2c1ncn2[C@@H]1O[C@H](COP(=O)(O)OP(=O)(O)C(Br)(Br)P(=O)(O)O)[C@@H](O)[C@H]1O [Compound 27, (Dibromo((((((2R,3S,4R,5R)-5-(6-(dipropylamino)-9H-purin-9-yl)-3,4-dihydroxytetrahydro-furan-2-yl)methoxy)-(hydroxy)phosphoryl)oxy)(hydroxy)phosphoryl)methyl)-phosphonic Acid] | 2.68 ± 1.11 | – | – |
| CNc1ncnc2c1nc(NC1CC1)n2[C@@H]1O[C@H](COP(=O)(O)OP(=O)(O)C(Br)(Br)P(=O)(O)O)[C@@H](O)[C@H]1O [Compound 32, (Dibromo((((((2R,3S,4R,5R)-5-(8-(cyclopropylamino)-6-(methylamino)-9H-purin-9-yl)-3,4-di-hydroxytetrahydrofuran-2-yl)methoxy)(hydroxy)-phosphoryl)oxy)(hydroxy)phosphoryl)methyl)phosphonic-Acid] | 5.72 ± 0.86 | – | – |
| CCCCNc1nc2c(N(C)C)ncnc2n1[C@@H]1O[C@H](COP(=O)(O)OP(=O)(O)C(Br)(Br)P(=O)(O)O)[C@@H](O)[C@H]1O [Compound 34, (Dibromo((((((2R,3S,4R,5R)-5-(8-(butylamino)-6-(dimethylamino)-9H-purin-9-yl)-3,4-di-hydroxytetrahydrofuran-2-yl)methoxy)(hydroxy)-phosphoryl)oxy)(hydroxy)phosphoryl)methyl)-phosphonic Acid] | ~10 | 54 | – |
| Nc1ncnc2c1ncn2[C@@H]1O[C@H](COP(=O)(O)CP(=O)(O)O)[C@@H](O)[C@H]1O [Compound 42, α,β-Methylene-ADP, reference compound] | – | – | Ki (Ki ± SEM, fluorescent substrate PSB-017621A 0.5 µM): > 10 µM; inhibition at 10 µM: 14% |
| Nc1ncnc2c1ncn2[C@@H]1O[C@H](COP(=O)(O)OP(=O)(O)C(Cl)(Cl)P(=O)(O)O)[C@@H](O)[C@H]1O [Compound 39, (((((((2R,3S,4R,5R)-5-(6-Amino-9H-purin-9-yl)-3,4-dihydroxytetrahydrofuran-2-yl)methoxy)-(hydroxy)-phosphoryl)oxy)(hydroxy)phosphoryl)dichloromethyl)-phosphonic Acid] | 9.53 ± 1.46 | – | IC50 (in words): low micromolar range; fold less potent than dibromo-derivative 38 at CD39 [3]: about 2 fold |
| CCCCSc1nc2c(NC)ncnc2n1[C@@H]1O[C@H](COP(=O)(O)OP(=O)(O)C(Br)(Br)P(=O)(O)O)[C@@H](O)[C@H]1O [Compound 36, (Dibromo((((((2R,3S,4R,5R)-5-(8-(butylthio)-6-(methylamino)-9H-purin-9-yl)-3,4-dihydroxy-tetrahydrofuran-2-yl)methoxy)(hydroxy)phosphoryl)oxy)-(hydroxy)phosphoryl)methyl)phosphonic Acid] | > 10 | 39 | – |
| CCN(CC)c1ncnc2c1nc(NC)n2[C@@H]1O[C@H](COP(=O)(O)OP(=O)(O)C(Br)(Br)P(=O)(O)O)[C@@H](O)[C@H]1O [Compound 35, (Dibromo((((((2R,3S,4R,5R)-5-(6-(diethylamino)-8-(methylamino)-9H-purin-9-yl)-3,4-di-hydroxytetrahydrofuran-2-yl)methoxy)(hydroxy)phosphoryl)-oxy)(hydroxy)phosphoryl)methyl)phosphonic Acid] | ~10 | 59 | – |
